{"source": "patent US10294234B2", "about": "“HIV inhibitor compounds” (priority 2017, dated 2019)"}
{"test_system": "HIV-1 (IIIB) in MT-4 cells", "experiment": "MT-4 HIV assay", "type": "cell-based", "conditions": "Human immunodeficiency virus 1, MT4, 120 h; HIV-1 (IIIB), MT-4 cells, 5 days, Cell Titer Glo; read-out: EC50", "in_short": "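MT-4 cells infected with HIV-1 IIIB (1:250 stock dilution) were incubated with 1:3 serially diluted compounds in RPMI with 10% FBS for 5 days at 37 °C. Cell Titer Glo luminescence was the readout. Plates included mock-infected wells, no-drug wells and 5 uM AZT controls.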", "units": {"EC50": "nM"}}
{"compound": "COC(=O)N[C@H](C(=O)NN(Cc1c(F)cc(-c2cnn(C(F)F)c2)cc1F)C[C@H](O)[C@H](Cc1ccc(C#Cc2ccc(N3CC4CCC(C3)N4C3COC3)nc2)cc1)NC(=O)[C@@H](NC(=O)OC)C(C)(C)C(F)(F)F)C(C)(C)CF", "note": "[Example 80, Methyl ((5S,8S,9S,14S)-11-(4-(1-(difluoromethyl)-1H-pyrazol-4-yl)-2,6-difluorobenzyl)-16-fluoro-9-hydroxy-15,15-dimethyl-8-(4-((6-(8-(oxetan-3-yl)-3,8-diazabicyclo [3.2.1]octan-3-yl)pyridin-3-yl)ethynyl)benzyl)-3,6,13-trioxo-5-(1,1,1-trifluoro-2-methylpropan-2-yl)-2-oxa-4,7,11,12-tetraazahexadecan-14-yl)carbamate]", "EC50": 3.13}
{"compound": "COC(=O)N[C@H](C(=O)N[C@@H](Cc1ccc(C#Cc2ccc(N3CC4CCC(C3)N4C3COC3)nc2)cc1)[C@@H](O)CN(Cc1c(F)cc(C2COC2)cc1F)NC(=O)[C@@H](NC(=O)OC)C(C)(C)C(F)(F)F)C(C)(C)C(F)(F)F", "note": "[Example 83, Methyl ((5S,8S,9S,14S)-11-(2,6-difluoro-4-(oxetan-3-yl)benzyl)-16,16,16-trifluoro-9-hydroxy-15,15-dimethyl-8-(4-((6-(8-(oxetan-3-yl)-3,8-diazabicyclo[3.2.1]octan-3-yl)pyridin-3-yl)ethynyl)benzyl)-3,6,13-trioxo-5-(1,1,1-trifluoro-2-methylpropan-2-yl)-2-oxa-4,7,11,12-tetraazahexadecan-14-yl)carbamate]", "EC50": 17.2}
{"compound": "COC(=O)N[C@H](C(=O)N[C@@H](Cc1ccc(C#Cc2ccc(N3CC4CCC(C3)N4C3COC3)nc2)cc1)[C@@H](O)CN(Cc1c(F)cc(-c2ccccn2)cc1F)NC(=O)[C@@H](NC(=O)OC)C(C)(C)C)C(C)(C)C", "note": "[Example 84, Methyl ((5S,8S,9S,14S)-5-(tert-butyl)-11-(2,6-difluoro-4-(pyridin-2-yl)benzyl)-9-hydroxy-15,15-dimethyl-8-(4-((6-(8-(oxetan-3-yl)-3,8-diazabicyclo[3.2.1]octan-3-yl)pyridin-3-yl)ethynyl)benzyl)-3,6,13-trioxo-2-oxa-4,7,11,12-tetraazahexadecan-14-yl)carbamate]", "EC50": 3.23}
{"compound": "COC(=O)N[C@H](C(=O)NN(Cc1c(F)cc(-c2ccn(C3CC3)n2)cc1F)C[C@H](O)[C@H](Cc1ccc(C#Cc2ccc(N3CCN(C4COC4)CC3)nc2)cc1)NC(=O)[C@@H](NC(=O)OC)C(C)(C)C(F)(F)F)C(C)(C)C", "note": "[Example 91, Methyl ((5S,8S,9S,14S)-11-(4-(1-cyclopropyl-1H-pyrazol-3-yl)-2,6-difluorobenzyl)-9-hydroxy-15,15-dimethyl-8-(4-((6-(4-(oxetan-3-yl)piperazin-1-yl)pyridin-3-yl)ethynyl)benzyl)-3,6,13-trioxo-5-(1,1,1-trifluoro-2-methylpropan-2-yl)-2-oxa-4,7,11,12-tetraazahexadecan-14-yl)carbamate]", "EC50": 3.69}
{"compound": "COC(=O)N[C@H](C(=O)N[C@@H](Cc1ccc(C#Cc2ccc(N3CCN(C4COC4)CC3)nc2)cc1)[C@@H](O)CN(Cc1c(F)cc(-c2ccn(C3CC3)n2)cc1F)NC(=O)[C@@H](NC(=O)OC)C(C)(C)C(F)(F)F)C(C)(C)C(F)(F)F", "note": "[Example 92, Methyl ((5S,8S,9S,14S)-11-(4-(1-cyclopropyl-1H-pyrazol-3-yl)-2,6-difluorobenzyl)-16,16,16-trifluoro-9-hydroxy-15,15-dimethyl-8-(4-((6-(4-(oxetan-3-yl)piperazin-1-yl)pyridin-3-yl)ethynyl)benzyl)-3,6,13-trioxo-5-(1,1,1-trifluoro-2-methylpropan-2-yl)-2-oxa-4,7,11,12-tetraazahexadecan-14-yl)carbamate]", "EC50": 3.72}
{"compound": "COC(=O)N[C@H](C(=O)NN(Cc1c(F)cc(-c2ncccn2)cc1F)C[C@H](O)[C@H](Cc1ccc(C#Cc2ccc(N3CCN(C4COC4)CC3)nc2)cc1)NC(=O)[C@@H](NC(=O)OC)C(C)(C)C(F)(F)F)C(C)(C)C", "note": "[Example 94, methyl ((5S,8S,9S,14S)-11-(2,6-difluoro-4-(pyrimidin-2-yl)benzyl)-9-hydroxy-15,15-dimethyl-8-(4-((6-(4-(oxetan-3-yl)piperazin-1-yl)pyridin-3-yl)ethynyl)benzyl)-3,6,13-trioxo-5-(1,1,1-trifluoro-2-methylpropan-2-yl)-2-oxa-4,7,11,12-tetraazahexadecan-14-yl)carbamate]", "EC50": 2.57}
{"compound": "COC(=O)N[C@H](C(=O)NN(Cc1c(F)cc(-c2ncccn2)cc1F)C[C@H](O)[C@H](Cc1ccc(C#Cc2ccc(N3CC4CCC(C3)N4C3COC3)nc2)cc1)NC(=O)[C@@H](NC(=O)OC)C(C)(C)C(F)(F)F)C(C)(C)C", "note": "[Example 96, Methyl ((5S,8S,9S,14S)-11-(2,6-difluoro-4-(pyrimidin-2-yl)benzyl)-9-hydroxy-15,15-dimethyl-8-(4-((6-(8-(oxetan-3-yl)-3,8-diazabicyclo[3.2.1]octan-3-yl)pyridin-3-yl)ethynyl)benzyl)-3,6,13-trioxo-5-(1,1,1-trifluoro-2-methylpropan-2-yl)-2-oxa-4,7,11,12-tetraazahexadecan-14-yl)carbamate]", "EC50": 2.33}
{"compound": "COC(=O)N[C@H](C(=O)N[C@@H](Cc1ccc(C#Cc2ccc(N3CC4CCC(C3)N4C3COC3)nc2)cc1)[C@@H](O)CN(Cc1c(F)cc(-c2ccc(C(F)F)nc2)cc1F)NC(=O)[C@@H](NC(=O)OC)C(C)(C)C(F)(F)F)C(C)(C)C(F)(F)F", "note": "[Example 100, Methyl ((5S,8S,9S,14S)-11-(4-(6-(difluoromethyl)pyridin-3-yl)-2,6-difluorobenzyl)-16,16,16-trifluoro-9-hydroxy-15,15-dimethyl-8-(4-((6-(8-(oxetan-3-yl)-3,8-diazabicyclo[3.2.1]octan-3-yl)pyridin-3-yl)ethynyl)benzyl)-3,6,13-trioxo-5-(1,1,1-trifluoro-2-methylpropan-2-yl)-2-oxa-4,7,11,12-tetraazahexadecan-14-yl)carbamate]", "EC50": 7.96}
{"compound": "COC(=O)N[C@H](C(=O)N[C@@H](Cc1ccc(C#Cc2ccc(N3CCN(C4CCOCC4)CC3)nc2)cc1)[C@@H](O)CN(Cc1c(F)cc(-c2ccn(C(F)F)n2)cc1F)NC(=O)[C@@H](NC(=O)OC)C(C)(C)C(F)(F)F)C(C)(C)C(F)(F)F", "note": "[Example 104, Methyl ((5S,8S,9S,14S)-11-(4-(1-(difluoromethyl)-1H-pyrazol-3-yl)-2,6-difluorobenzyl)-16,16,16-trifluoro-9-hydroxy-15,15-dimethyl-3,6,13-trioxo-8-(4-((6-(4-(tetrahydro-2H-pyran-4-yl)piperazin-1-yl)pyridin-3-yl)ethynyl)benzyl)-5-(1,1,1-trifluoro-2-methylpropan-2-yl)-2-oxa-4,7,11,12-tetraazahexadecan-14-yl)carbamate]", "EC50": 4.97}
{"compound": "COC(=O)N[C@H](C(=O)N[C@@H](Cc1ccc(C#Cc2ccc(N3CC4CCC(C3)N4CC3(C)COC3)nc2)cc1)[C@@H](O)CN(Cc1c(F)cc(-c2cnn(C(F)F)c2)cc1F)NC(=O)[C@@H](NC(=O)OC)C(C)(C)C(F)(F)F)C(C)(C)C(F)(F)F", "note": "[Example 108, Methyl ((5S,8S,9S,14S)-11-(4-(1-(difluoromethyl)-1H-pyrazol-4-yl)-2,6-difluorobenzyl)-16,16,16-trifluoro-9-hydroxy-15,15-dimethyl-8-(4-((6-(8-((3-methyloxetan-3-yl)methyl)-3,8-diazabicyclo[3.2.1]octan-3-yl)pyridin-3-yl)ethynyl)benzyl)-3,6,13-trioxo-5-(1,1,1-trifluoro-2-methylpropan-2-yl)-2-oxa-4,7,11,12-tetraazahexadecan-14-yl)carbamate]", "EC50": 7.23}
